Tests used:
[1] = target: Mu-type opioid receptor (Homo sapiens, UniProt P35372)
[2] = target: Growth hormone secretagogue receptor type 1 (Homo sapiens, UniProt Q92847)
[3] = target: T1, Type-1 angiotensin II receptor (Homo sapiens, UniProt P30556)
T1 sequence (P30556 whole entry): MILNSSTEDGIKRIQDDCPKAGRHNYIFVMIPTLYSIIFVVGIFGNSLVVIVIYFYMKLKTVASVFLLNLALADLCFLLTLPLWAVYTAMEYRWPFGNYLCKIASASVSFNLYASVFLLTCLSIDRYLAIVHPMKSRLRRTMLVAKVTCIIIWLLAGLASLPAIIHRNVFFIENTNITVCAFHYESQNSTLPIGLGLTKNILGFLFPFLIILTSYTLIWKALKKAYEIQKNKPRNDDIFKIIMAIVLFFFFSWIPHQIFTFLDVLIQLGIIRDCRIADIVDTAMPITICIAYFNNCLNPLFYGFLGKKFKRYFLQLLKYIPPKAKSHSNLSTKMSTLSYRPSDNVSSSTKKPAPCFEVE

[4] = target: T2, Cholecystokinin receptor type A (Homo sapiens, UniProt P32238)
T2 sequence (P32238 whole entry): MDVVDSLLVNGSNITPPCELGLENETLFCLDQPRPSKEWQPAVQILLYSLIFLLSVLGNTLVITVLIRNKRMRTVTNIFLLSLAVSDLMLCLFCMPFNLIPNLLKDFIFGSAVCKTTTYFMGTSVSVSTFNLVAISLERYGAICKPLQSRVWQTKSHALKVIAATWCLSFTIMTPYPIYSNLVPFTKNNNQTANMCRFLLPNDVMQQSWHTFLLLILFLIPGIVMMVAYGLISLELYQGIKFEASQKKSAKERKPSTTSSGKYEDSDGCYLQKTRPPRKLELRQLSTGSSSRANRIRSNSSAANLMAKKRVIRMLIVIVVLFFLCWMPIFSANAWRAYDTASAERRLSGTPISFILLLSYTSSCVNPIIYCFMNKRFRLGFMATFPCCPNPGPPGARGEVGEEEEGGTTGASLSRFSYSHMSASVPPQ

[5] = target: T3, Equilibrative nucleoside transporter 1 (Homo sapiens, UniProt Q99808)
T3 sequence (Q99808 whole entry): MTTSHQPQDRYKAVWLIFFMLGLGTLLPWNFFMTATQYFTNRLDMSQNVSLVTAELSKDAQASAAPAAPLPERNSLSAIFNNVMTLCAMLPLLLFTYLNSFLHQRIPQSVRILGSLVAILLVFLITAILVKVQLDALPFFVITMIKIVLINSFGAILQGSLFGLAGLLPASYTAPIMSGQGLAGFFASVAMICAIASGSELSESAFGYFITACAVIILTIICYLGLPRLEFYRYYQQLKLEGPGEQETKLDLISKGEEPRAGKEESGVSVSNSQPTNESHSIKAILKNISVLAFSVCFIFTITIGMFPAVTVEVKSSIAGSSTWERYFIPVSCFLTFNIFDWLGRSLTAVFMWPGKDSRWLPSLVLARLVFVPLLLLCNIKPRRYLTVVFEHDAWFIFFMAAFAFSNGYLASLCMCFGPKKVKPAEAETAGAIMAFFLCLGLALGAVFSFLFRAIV

[6] = target: T4, Alpha-1A adrenergic receptor (Homo sapiens, UniProt P35348); assay type: functional, cell-based
T4 sequence (P35348 whole entry): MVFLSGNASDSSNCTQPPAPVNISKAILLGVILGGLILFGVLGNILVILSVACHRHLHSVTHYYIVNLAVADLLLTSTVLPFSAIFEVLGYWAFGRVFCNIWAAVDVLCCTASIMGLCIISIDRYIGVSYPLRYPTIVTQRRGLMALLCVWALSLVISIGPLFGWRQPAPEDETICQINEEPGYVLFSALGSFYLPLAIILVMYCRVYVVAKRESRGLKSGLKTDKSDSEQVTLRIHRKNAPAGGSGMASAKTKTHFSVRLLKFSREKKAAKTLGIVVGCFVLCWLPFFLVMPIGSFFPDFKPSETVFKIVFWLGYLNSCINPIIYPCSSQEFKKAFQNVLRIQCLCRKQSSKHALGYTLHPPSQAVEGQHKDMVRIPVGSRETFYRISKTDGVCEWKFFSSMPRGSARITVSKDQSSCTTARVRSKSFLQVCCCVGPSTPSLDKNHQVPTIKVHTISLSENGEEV

[7] = target: T5, Adenosine receptor A1 (Homo sapiens, UniProt P30542)
T5 sequence (P30542 whole entry): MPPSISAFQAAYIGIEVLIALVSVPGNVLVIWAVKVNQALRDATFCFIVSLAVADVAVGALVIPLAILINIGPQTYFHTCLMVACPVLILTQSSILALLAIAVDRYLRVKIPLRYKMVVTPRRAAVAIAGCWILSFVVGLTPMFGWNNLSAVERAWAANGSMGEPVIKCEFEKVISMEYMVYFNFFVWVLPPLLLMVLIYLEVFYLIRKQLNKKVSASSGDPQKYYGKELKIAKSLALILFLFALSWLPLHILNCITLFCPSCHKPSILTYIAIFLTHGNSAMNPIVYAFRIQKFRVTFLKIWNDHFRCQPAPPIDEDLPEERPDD

[8] = target: Glutamate receptor ionotropic, NMDA 1 (Rattus norvegicus, UniProt P35439)
[9] = target: Gamma-aminobutyric acid receptor subunit alpha-1 (Rattus norvegicus, UniProt P62813); assay type: functional
Sequence of Gamma-aminobutyric acid receptor subunit alpha-1 (P62813 whole entry): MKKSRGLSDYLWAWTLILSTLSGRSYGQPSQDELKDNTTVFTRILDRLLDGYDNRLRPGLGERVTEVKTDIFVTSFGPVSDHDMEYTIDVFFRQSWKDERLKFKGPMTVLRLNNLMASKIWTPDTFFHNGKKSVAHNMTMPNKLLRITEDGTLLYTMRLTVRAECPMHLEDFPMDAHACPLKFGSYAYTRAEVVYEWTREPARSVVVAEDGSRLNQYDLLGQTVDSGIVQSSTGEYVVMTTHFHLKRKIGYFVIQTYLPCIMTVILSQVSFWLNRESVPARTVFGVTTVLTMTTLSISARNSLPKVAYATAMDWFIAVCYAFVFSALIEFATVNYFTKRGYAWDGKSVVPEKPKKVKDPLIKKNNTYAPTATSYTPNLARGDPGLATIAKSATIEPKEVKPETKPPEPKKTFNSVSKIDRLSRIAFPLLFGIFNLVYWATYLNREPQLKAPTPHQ

[10] = target: Sodium-dependent serotonin transporter (Homo sapiens, UniProt P31645)
Sequence of Sodium-dependent serotonin transporter (P31645 whole entry): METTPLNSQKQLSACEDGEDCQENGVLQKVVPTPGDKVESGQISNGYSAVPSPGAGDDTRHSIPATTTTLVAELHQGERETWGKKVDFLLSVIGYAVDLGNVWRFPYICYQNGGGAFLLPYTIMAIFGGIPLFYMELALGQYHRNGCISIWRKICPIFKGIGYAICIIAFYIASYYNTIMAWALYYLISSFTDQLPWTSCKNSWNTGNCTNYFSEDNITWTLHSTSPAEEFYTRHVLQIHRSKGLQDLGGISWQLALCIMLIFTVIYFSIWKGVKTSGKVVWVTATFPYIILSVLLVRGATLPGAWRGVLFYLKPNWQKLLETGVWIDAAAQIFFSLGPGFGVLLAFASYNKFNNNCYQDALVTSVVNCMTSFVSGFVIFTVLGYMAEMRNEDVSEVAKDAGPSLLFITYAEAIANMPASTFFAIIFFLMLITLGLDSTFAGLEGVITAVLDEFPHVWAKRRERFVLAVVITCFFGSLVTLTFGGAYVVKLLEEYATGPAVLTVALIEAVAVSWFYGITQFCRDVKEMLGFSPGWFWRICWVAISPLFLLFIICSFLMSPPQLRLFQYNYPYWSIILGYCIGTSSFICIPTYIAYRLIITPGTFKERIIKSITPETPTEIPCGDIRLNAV

[11] = target: T6, Endothelin-1 receptor (Homo sapiens, UniProt P25101)
T6 sequence (P25101 whole entry): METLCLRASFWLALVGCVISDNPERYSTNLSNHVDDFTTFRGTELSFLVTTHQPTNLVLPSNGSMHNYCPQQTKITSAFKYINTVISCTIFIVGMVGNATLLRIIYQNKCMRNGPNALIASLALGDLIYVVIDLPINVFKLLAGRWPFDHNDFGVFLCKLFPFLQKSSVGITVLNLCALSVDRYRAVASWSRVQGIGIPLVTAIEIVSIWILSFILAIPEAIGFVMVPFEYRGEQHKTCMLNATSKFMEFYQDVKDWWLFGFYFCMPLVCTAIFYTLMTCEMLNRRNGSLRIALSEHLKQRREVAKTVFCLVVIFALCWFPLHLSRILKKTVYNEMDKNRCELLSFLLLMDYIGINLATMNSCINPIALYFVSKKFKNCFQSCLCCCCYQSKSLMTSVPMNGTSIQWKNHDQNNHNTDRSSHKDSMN
Further: assay procedure not described here.

Sequence of Growth hormone secretagogue receptor type 1 (Q92847 whole entry): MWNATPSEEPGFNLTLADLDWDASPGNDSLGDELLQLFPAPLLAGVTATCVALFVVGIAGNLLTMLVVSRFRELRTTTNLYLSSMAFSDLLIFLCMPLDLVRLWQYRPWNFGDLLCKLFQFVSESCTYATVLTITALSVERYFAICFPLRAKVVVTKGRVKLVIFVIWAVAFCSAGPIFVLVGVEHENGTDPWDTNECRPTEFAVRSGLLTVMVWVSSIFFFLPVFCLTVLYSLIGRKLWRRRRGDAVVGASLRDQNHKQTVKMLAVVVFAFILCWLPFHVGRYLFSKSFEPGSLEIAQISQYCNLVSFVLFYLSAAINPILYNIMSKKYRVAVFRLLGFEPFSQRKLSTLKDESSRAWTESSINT
Sequence of Mu-type opioid receptor (P35372 whole entry): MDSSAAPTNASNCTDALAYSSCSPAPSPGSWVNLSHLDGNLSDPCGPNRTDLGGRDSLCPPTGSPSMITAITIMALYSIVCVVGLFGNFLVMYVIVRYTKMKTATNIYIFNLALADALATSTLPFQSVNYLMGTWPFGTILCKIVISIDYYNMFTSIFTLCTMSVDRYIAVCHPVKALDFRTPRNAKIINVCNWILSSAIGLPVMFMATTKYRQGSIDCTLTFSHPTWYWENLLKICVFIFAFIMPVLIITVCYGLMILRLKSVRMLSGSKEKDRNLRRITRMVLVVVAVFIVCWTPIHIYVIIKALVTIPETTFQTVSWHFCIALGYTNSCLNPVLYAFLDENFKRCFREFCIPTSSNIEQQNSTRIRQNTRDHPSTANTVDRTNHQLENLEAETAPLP

SMILES | AC50 [1] | AC50 [2] | AC50 [3] | AC50 [4] | AC50 [5] | AC50 [6] | AC50 [7] | AC50 [8] | AC50 [9] | AC50 [10] | AC50 [11]
CC(=O)/N=c1/sc(S(N)(=O)=O)nn1C [METHAZOLAMIDE] | > 30 µM | > 10 µM | > 10 µM | > 10 µM | > 10 µM | > 30 µM | > 10 µM | > 10 µM | > 10 µM | > 30 µM | –
CC1(C)O[C@@H]2[C@@H](CO[C@@]3(COS(N)(=O)=O)OC(C)(C)O[C@@H]23)O1 [TOPIRAMATE] | > 10 µM | > 30 µM | > 30 µM | > 30 µM | > 30 µM | > 30 µM | > 30 µM | > 10 µM | > 10 µM | > 30 µM | > 30 µM

Source: ChEMBL document CHEMBL5291721, “A preclinical secondary pharmacology resource illuminates target-adverse drug reaction associations of marketed drugs” (Nat Commun, 2023)
